One experiment has as its target T1, human CYP11B2 (Homo sapiens, UniProt P19099).
T1 construct: expressed in transfected cells
T1 sequence (P19099 25-503): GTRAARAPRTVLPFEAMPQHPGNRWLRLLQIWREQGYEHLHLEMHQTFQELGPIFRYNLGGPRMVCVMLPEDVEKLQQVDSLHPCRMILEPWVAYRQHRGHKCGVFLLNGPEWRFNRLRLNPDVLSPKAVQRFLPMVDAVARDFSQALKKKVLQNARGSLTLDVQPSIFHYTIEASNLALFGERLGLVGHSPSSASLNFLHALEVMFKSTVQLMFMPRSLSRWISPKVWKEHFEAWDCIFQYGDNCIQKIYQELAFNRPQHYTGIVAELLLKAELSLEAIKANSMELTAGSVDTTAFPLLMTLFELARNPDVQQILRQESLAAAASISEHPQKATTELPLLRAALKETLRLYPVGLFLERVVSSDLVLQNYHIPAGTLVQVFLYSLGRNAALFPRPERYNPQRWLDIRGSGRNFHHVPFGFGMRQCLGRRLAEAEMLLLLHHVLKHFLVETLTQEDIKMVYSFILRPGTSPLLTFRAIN
Description: Inhibition of hCYP11B2 in transfected V79 cells. The format is cell-based. The following applies: hamster V79 cells expressing human CYP11B2; substrate 11-deoxycorticosterone 200 nM. In short, it runs like this:
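Hamster V79 cells stably co-expressing human CYP11B2 and rat NADPH-P450 reductase were pre-incubated with compounds for 2 hours, then given 200 nM 11-deoxycorticosterone for 30 minutes before ethyl acetate quench. Substrate and product were quantified by LC-MS/MS or HPLC at 260 nm, and IC50 was derived from percent inhibition.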

A further experiment has as its target T2, human CYP11B1 (Homo sapiens, UniProt P15538).
T2 construct: expressed in transfected cells
T2 sequence (P15538 25-503): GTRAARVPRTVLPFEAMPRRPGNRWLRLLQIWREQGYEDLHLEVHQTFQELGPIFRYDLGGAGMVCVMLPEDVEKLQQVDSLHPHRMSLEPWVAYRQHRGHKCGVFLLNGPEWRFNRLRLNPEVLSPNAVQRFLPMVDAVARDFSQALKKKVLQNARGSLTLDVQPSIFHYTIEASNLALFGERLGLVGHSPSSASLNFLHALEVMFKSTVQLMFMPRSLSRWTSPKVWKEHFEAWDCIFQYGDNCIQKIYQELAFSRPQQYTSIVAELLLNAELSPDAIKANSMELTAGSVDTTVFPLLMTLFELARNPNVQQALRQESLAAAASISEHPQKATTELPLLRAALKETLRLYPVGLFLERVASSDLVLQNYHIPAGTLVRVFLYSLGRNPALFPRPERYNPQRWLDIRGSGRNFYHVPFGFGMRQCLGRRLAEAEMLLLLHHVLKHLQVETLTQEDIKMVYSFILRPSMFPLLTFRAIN
Description: Inhibition of hCYP11B1 in transfected V79 cells. The experiment is classed as cell-based. The following applies: hamster V79 cells expressing human CYP11B1; substrate 11-deoxycortisol 200 nM. A digest of the protocol: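 V79 hamster cells stably expressing human CYP11B1 and rat NADPH-P450 reductase were preincubated with compounds for 2 h. 11-Deoxycortisol (200 nM) was then added as substrate for 30 min before ethyl acetate quench. Substrate and product were quantified by LC-MS/MS or HPLC at 260 nm, and IC50 was derived from percent inhibition.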

pIC50: −log10 of the molar value.

`N#Cc1ccc(-c2cncc3c2SCCN3S(=O)(=O)c2cccc3cccnc23)cc1` [S26, 4-(4-(Quinolin-8-ylsulfonyl)-3,4-dihydro-2H-pyrido[4,3-b][1,4]thiazin-8-yl)benzonitrile]: the pIC50 at human CYP11B2 is 9.07; against human CYP11B1 it was 7.55.

For `COc1ccc(S(=O)(=O)N2CCSc3c(-c4cccc(C#N)c4)cncc32)cc1` [S27, 3-(4-((4-Methoxyphenyl)sulfonyl)-3,4-dihydro-2H-pyrido[4,3-b][1,4]thiazin-8-yl)benzonitrile], the pIC50 on human CYP11B2 is 9.15; at human CYP11B1, 8.54.

With `COc1ccc(S(=O)(=O)N2CCSc3c(-c4ccc(Cl)cc4)cncc32)cc1` [S28, 8-(4-Chlorophenyl)-4-((4-methoxyphenyl)sulfonyl)-3,4-dihydro-2H-pyrido[4,3-b][1,4]thia zine], the pIC50 against human CYP11B2 is 9.70; on human CYP11B1 it was 8.74.

On to `COc1ccc(S(=O)(=O)N2CCSc3c(-c4cccc(Cl)c4)cncc32)cc1` [S29, 8-(3-Chlorophenyl)-4-((4-methoxyphenyl)sulfonyl)-3,4-dihydro-2H-pyrido[4,3-b][1,4]thia zine], for which the pIC50 was 8.82 against human CYP11B2 and 8.14 against human CYP11B1.

With `COc1ccc(S(=O)(=O)N2CCSc3c(-c4ccc(F)cc4)cncc32)cc1` [S30, 8-(4-Fluorophenyl)-4-((4-methoxyphenyl)sulfonyl)-3,4-dihydro-2H-pyrido[4,3-b][1,4]thia zine], the pIC50 was 9.00 against human CYP11B2 and 7.72 against human CYP11B1.

As to `COc1ccc(S(=O)(=O)N2CCSc3c(-c4cccc(F)c4)cncc32)cc1` [S31, 8-(3-Fluorophenyl)-4-((4-methoxyphenyl)sulfonyl)-3,4-dihydro-2H-pyrido[4,3-b][1,4]thia zine], the negative-log IC50 (pIC50) was 8.23 on human CYP11B2 and 6.87 against human CYP11B1.

`COc1ccc(S(=O)(=O)N2CCSc3c(-c4ccc(C(F)(F)F)cc4)cncc32)cc1` [S32, 4-((4-methoxyphenyl)sulfonyl)-8-(4-(trifluoromethyl)phenyl)-3,4-dihydro-2H-pyrido[4,3-b][1,4]thiazine]: the values for the pIC50 against human CYP11B2 and at human CYP11B1 were 7.99 and 6.33, respectively.

In the case of `COc1ccc(S(=O)(=O)N2CCSc3c(-c4ccc(F)c(C)c4)cncc32)cc1` [S33, 8-(4-Fluoro-3-methylphenyl)-4-((4-methoxyphenyl)sulfonyl)-3,4-dihydro-2H-pyrido[4,3-b][1,4]thiazine], the pIC50 was 10.05 against human CYP11B2 and 8.27 against human CYP11B1.

On to `COc1ccc(S(=O)(=O)N2CCSc3c(-c4ccc(F)c(Cl)c4)cncc32)cc1` [S34, 8-(3-chloro-4-fluorophenyl)-4-((4-methoxyphenyl)sulfonyl)-3,4-dihydro-2H-pyrido[4,3-b][1,4]thiazine], for which the pIC50 is 9.77 on human CYP11B2 and 7.87 at human CYP11B1.

As for `COc1ccc(S(=O)(=O)N2CCSc3c(-c4ccc(C#N)c(F)c4)cncc32)cc1` [S35, 2-Fluoro-4-(4-((4-methoxyphenyl)sulfonyl)-3,4-dihydro-2H-pyrido[4,3-b][1,4]thiazin-8-yl) benzonitrile], the pIC50 against human CYP11B2 is 9.92; at human CYP11B1 it was 9.46.

`COc1ccc(S(=O)(=O)N2CCSc3c(-c4ccsc4)cncc32)cc1` [S36, 4-((4-Methoxyphenyl)sulfonyl)-8-(thiophen-3-yl)-3,4-dihydro-2H-pyrido[4,3-b][1,4]thiazine]: the pIC50 on human CYP11B2 is 8.25; against human CYP11B1 it was 7.52.

For the compound `COc1ccc(S(=O)(=O)N2CCSc3c(-c4cccs4)cncc32)cc1` [S37, 4-((4-Methoxyphenyl)sulfonyl)-8-(thiophen-2-yl)-3,4-dihydro-2H-pyrido[4,3-b][1,4]thiazine], the results for the pIC50 at human CYP11B2 and at human CYP11B1 were 8.22 and 7.08, respectively.

For `COc1ccc(S(=O)(=O)N2CCSc3c(-c4ccco4)cncc32)cc1` [S38, 8-(Furan-2-yl)-4-((4-methoxyphenyl)sulfonyl)-3,4-dihydro-2H-pyrido[4,3-b][1,4]thiazine], the negative logarithm of the IC50 (pIC50) at human CYP11B2 was 8.68; at human CYP11B1, 9.15.

As to `COc1ccc(S(=O)(=O)N2CCSc3c(-c4cn[nH]c4)cncc32)cc1` [S39, 4-((4-Methoxyphenyl)sulfonyl)-8-(1H-pyrazol-4-yl)-3,4-dihydro-2H-pyrido[4,3-b][1,4]thia zine], the pIC50 on human CYP11B2 is 6.58; against human CYP11B1 it was 6.86.

`N#Cc1ccc(S(=O)(=O)N2CCSc3c(-c4cc5ccccc5o4)cncc32)cc1` [S40, 4-((8-(Benzofuran-2-yl)-2,3-dihydro-4H-pyrido[4,3-b][1,4]thiazin-4-yl)sulfonyl)benzonitrile]: the pIC50 was 8.17 on human CYP11B2 and 6.18 against human CYP11B1.

`N#Cc1ccc(S(=O)(=O)N2CCSc3c(-c4cc5cc(Cl)ccc5o4)cncc32)cc1` [S41, 4-((8-(5-Chlorobenzofuran-2-yl)-2,3-dihydro-4H-pyrido[4,3-b][1,4]thiazin-4-yl)sulfonyl) benzonitrile]: the pIC50 was 9.40 against human CYP11B2 and 7.00 against human CYP11B1.

As for `N#Cc1ccc(S(=O)(=O)N2CCSc3c(-c4cc5cc(C#N)ccc5o4)cncc32)cc1` [S42, 2-(4-((4-Cyanophenyl)sulfonyl)-3,4-dihydro-2H-pyrido[4,3-b][1,4]thiazin-8-yl)benzofuran-5-carbonitrile], the pIC50 against human CYP11B2 is 9.52; against human CYP11B1, 7.62.

Take `N#Cc1ccc(S(=O)(=O)N2CCSc3c(-c4cc5ccccc5s4)cncc32)cc1` [S43, 4-((8-(Benzo[b]thiophen-2-yl)-2,3-dihydro-4H-pyrido[4,3-b][1,4]thiazin-4-yl)sulfonyl)benzonitrile]: the pIC50 against human CYP11B2 was 8.19; against human CYP11B1, 6.21.

As to `N#Cc1ccc(S(=O)(=O)N2CCSc3c(-c4ccc5occc5c4)cncc32)cc1` [S44, 4-((8-(Benzofuran-5-yl)-2,3-dihydro-4H-pyrido[4,3-b][1,4]thiazin-4-yl)sulfonyl)benzonitrile], the results for the pIC50 at human CYP11B2 and against human CYP11B1 were 7.34 and 6.11, respectively.

As for `Cn1ncc2ccc(-c3cncc4c3SCCN4S(=O)(=O)c3ccc(C#N)cc3)cc21` [S45, 4-((8-(1-Methyl-1H-indazol-6-yl)-2,3-dihydro-4H-pyrido[4,3-b][1,4]thiazin-4-yl)sulfonyl) benzonitrile], the pIC50 against human CYP11B2 is 7.94; at human CYP11B1 it was 5.84.

For the compound `N#Cc1ccc(S(=O)(=O)N2CCSc3c(-c4ccc5ncsc5c4)cncc32)cc1` [S46, 4-((8-(Benzo[d]thiazol-6-yl)-2,3-dihydro-4H-pyrido[4,3-b][1,4]thiazin-4-yl)sulfonyl)benzonitrile], the negative logarithm of the IC50 (pIC50) against human CYP11B2 was 8.55; on human CYP11B1 it was 6.49.

Regarding `N#Cc1ccc(S(=O)(=O)N2CCSc3c(-c4ccc5[nH]ncc5c4)cncc32)cc1` [S48, 4-((8-(1H-Indazol-5-yl)-2,3-dihydro-4H-pyrido[4,3-b][1,4]thiazin-4-yl)sulfonyl)benzonitrile], the pIC50 was 7.60 against human CYP11B2 and 7.85 at human CYP11B1.

Take `N#Cc1ccc(S(=O)(=O)N2CCSc3c(-c4ccc5nc[nH]c5c4)cncc32)cc1` [S49, 4-((8-(1H-Benzo[d]imidazol-6-yl)-2,3-dihydro-4H-pyrido[4,3-b][1,4]thiazin-4-yl)sulfonyl)benzonitrile]: the pIC50 against human CYP11B2 is 7.57; on human CYP11B1 it was 8.15.

For `N#Cc1ccc(S(=O)(=O)N2CCSc3c(-c4ccn5ccnc5c4)cncc32)cc1` [S50, 4-((8-(Imidazo[1,2-a]pyridin-7-yl)-2,3-dihydro-4H-pyrido[4,3-b][1,4]thiazin-4-yl)sulfonyl)benzonitrile], the pIC50 at human CYP11B2 was 7.28; at human CYP11B1, 6.53.
